# Literature values in patent US8680270B2, “Metallo-oxidoreductase inhibitors using metal binding moieties in combination with targeting moieties” (Viamet Pharmaceuticals, Inc., priority 2006, dated 2014).
# Like-named read-outs stand apart in the source and are kept apart here.
# Key:
# [1] = tested on: androgen-dependent Dunning-H tumor; conditions: 120 mg/100 gm food, equivalent to 100 mg/kg per day
# [2] = tested on: androgen-independent, anaplastic AT-6 tumors; conditions: 120 mg/100 gm food, equivalent to 100 mg/kg per day
# [3] = tested on: Plasmodium falciparum
# [4] = tested on: Plasmodium falciparum; remark: listed apart in the source
# [5] = tested on: HO (heme oxygenase); parameters: dose or concentration left out as unconfirmed; conditions: broken cell preparations
# [6] = biological target: T1, sGC (Homo sapiens, UniProt Q02153); parameters: dose or concentration left out as unconfirmed; conditions: broken cell preparations
# T1 sequence (Q02153 1-619): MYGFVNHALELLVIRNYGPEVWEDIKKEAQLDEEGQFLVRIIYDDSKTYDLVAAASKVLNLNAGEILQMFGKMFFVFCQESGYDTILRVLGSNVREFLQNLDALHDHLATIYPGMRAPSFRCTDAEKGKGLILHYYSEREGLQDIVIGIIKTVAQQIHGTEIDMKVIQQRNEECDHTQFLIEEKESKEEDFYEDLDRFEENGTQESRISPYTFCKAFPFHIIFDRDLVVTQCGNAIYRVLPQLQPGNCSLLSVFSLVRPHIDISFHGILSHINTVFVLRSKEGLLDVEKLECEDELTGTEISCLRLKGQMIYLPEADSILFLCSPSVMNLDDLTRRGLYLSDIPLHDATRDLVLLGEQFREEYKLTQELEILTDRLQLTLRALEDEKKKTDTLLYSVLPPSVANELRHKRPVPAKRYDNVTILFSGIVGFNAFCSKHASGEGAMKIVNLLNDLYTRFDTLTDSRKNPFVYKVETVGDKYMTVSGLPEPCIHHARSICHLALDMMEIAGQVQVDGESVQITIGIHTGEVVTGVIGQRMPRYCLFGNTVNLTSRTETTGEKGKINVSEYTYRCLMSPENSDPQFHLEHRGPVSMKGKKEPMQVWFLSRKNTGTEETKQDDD
# T1 sequence (Q02108 1-690 partner): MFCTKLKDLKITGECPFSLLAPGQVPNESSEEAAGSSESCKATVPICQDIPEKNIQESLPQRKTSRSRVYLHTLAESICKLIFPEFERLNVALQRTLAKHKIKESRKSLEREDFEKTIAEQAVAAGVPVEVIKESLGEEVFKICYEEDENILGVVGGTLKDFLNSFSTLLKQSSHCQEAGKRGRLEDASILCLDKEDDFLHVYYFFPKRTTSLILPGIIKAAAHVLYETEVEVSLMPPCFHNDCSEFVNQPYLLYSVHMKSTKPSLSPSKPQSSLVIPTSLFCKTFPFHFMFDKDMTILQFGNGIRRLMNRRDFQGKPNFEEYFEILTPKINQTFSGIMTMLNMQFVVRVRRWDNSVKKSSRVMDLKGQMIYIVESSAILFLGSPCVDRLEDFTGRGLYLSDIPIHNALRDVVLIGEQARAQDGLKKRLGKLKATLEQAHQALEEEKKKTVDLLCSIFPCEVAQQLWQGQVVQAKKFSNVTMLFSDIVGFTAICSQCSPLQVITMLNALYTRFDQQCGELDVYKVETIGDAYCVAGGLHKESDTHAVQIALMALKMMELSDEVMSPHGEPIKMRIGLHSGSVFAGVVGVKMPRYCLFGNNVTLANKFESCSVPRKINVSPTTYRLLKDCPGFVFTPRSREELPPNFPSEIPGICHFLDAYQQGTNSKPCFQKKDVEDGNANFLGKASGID
# [7] = tested on: NOS; parameters: dose or concentration left out as unconfirmed; conditions: broken cell preparations
molecule,measurement,setting,value
Clc1cccc(C(c2ccc3[nH]cnc3c2)n2ccnc2)c1 (stereo not shown) [Liarozole],Median tumor volume decrease,[1],60%
same,Reduction of tumor growth,[2],−73%
O=CN(O)CCCP(=O)(O)O [fosmidomycin],Subjects cured on day 28,"[3]; Gabon, seven out of nine subjects",78%
same,Subjects cured on day 28,"[3]; Thailand, two out of nine subjects",22%
same,Clinical and parasitological cure on day 7 (primary end point),"[3]; oral 1,200 mg every 8 h for 7 days",All subjects were clinically and parasitologically cured
same,Tolerability,"[3]; oral 1,200 mg every 8 h for 7 days, mild gastrointestinal side effects in five subjects",well tolerated
same,Cure rate by day 14,"[4]; 1.2 g every 8 h for 3 days, six of ten",60%
same,Cure rate by day 14,"[4]; 1.2 g every 8 h for 4 days, seven of eight",88%
same,Cure rate by day 14,"[4]; 1.2 g every 8 h for 5 days, eight of nine",89%
same,Tolerability,"[4]; all treatment regimens, 1.2 g every 8 h for 5, 4 or 3 days",well tolerated
chromium mesoporphyrin IX [CrMP],Inhibition of HO,[5],90%
same,Effect on sGC,[6],little or no effect
same,Effect on NOS,[7],little or no effect
